Results taken from PubChem BioAssay (NCI).
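Where inhibition never reached the appropriate level, the endpoint shown equals the highest concentration tested. Otherwise, values were interpolated linearly from a five-concentration, 48-hour dose response in 96-well plates. GI50: concentration for 50% inhibition of growth. TGI denotes the concentration required for complete inhibition of growth.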

What was measured:
Experiment in all cases: growth of human tumour cells (NCI), 48 h
OVCAR-5 ovarian = tested on: OVCAR-5 ovarian
K-562 leukemia = tested on: K-562 leukemia
SNB-75 CNS = tested on: SNB-75 CNS
UACC-257 melanoma = tested on: UACC-257 melanoma
UACC-62 melanoma = tested on: UACC-62 melanoma
OVCAR-3 ovarian = tested on: OVCAR-3 ovarian
MDA-MB-231 breast = tested on: MDA-MB-231 breast
786-0 renal = tested on: 786-0 renal
RPMI-8226 leukemia = tested on: RPMI-8226 leukemia
HS 578T breast = tested on: HS 578T breast
SK-MEL-5 melanoma = tested on: SK-MEL-5 melanoma
SW-620 colon = tested on: SW-620 colon
SK-OV-3 ovarian = tested on: SK-OV-3 ovarian
EKVX NSCLC = tested on: EKVX NSCLC
KM12 colon = tested on: KM12 colon
MALME-3M melanoma = tested on: MALME-3M melanoma
RXF 393 renal = tested on: RXF 393 renal
NCI-H522 lung = tested on: NCI-H522 lung
DU-145 prostate = tested on: DU-145 prostate
SN12C renal = tested on: SN12C renal
HCC-2998 colon = tested on: HCC-2998 colon
CCRF-CEM leukemia = tested on: CCRF-CEM leukemia
PC-3 prostate = tested on: PC-3 prostate
SK-MEL-28 melanoma = tested on: SK-MEL-28 melanoma
HCT-116 colon = tested on: HCT-116 colon
OVCAR-4 ovarian = tested on: OVCAR-4 ovarian
UO-31 renal = tested on: UO-31 renal
IGROV1 ovarian = tested on: IGROV1 ovarian
SF-268 CNS = tested on: SF-268 CNS
SF-539 CNS = tested on: SF-539 CNS
MCF7 breast = tested on: MCF7 breast
OVCAR-8 ovarian = tested on: OVCAR-8 ovarian
M14 melanoma = tested on: M14 melanoma
MOLT-4 leukemia = tested on: MOLT-4 leukemia
HL-60(TB) leukemia = tested on: HL-60(TB) leukemia
SK-MEL-2 melanoma = tested on: SK-MEL-2 melanoma
TK-10 renal = tested on: TK-10 renal
CAKI-1 renal = tested on: CAKI-1 renal
NCI/ADR-RES ovarian = tested on: NCI/ADR-RES ovarian
COLO 205 colon = tested on: COLO 205 colon
MDA-MB-435 = tested on: MDA-MB-435
A549 NSCLC = tested on: A549 NSCLC
SNB-19 CNS = tested on: SNB-19 CNS
HOP-62 NSCLC = tested on: HOP-62 NSCLC
ACHN renal = tested on: ACHN renal
A498 renal = tested on: A498 renal
U251 CNS = tested on: U251 CNS
HCT-15 colon = tested on: HCT-15 colon
NCI-H226 lung = tested on: NCI-H226 lung
NCI-H23 lung = tested on: NCI-H23 lung
SF-295 CNS = tested on: SF-295 CNS
BT-549 breast = tested on: BT-549 breast
HT29 colon = tested on: HT29 colon
T-47D breast = tested on: T-47D breast
HOP-92 NSCLC = tested on: HOP-92 NSCLC
NCI-H460 lung = tested on: NCI-H460 lung

Structure (SMILES): Cn1cc(-c2cc3ncnc(Nc4ccc(NC(=O)Nc5cc(C(C)(C)C)on5)cc4)c3s2)cn1
- GI50 (OVCAR-5 ovarian): 3.49 µM
- TGI (OVCAR-5 ovarian): 21 µM
- GI50 (K-562 leukemia): 295 nM
- TGI (K-562 leukemia): > 100 µM
- GI50 (SNB-75 CNS): 182 nM
- TGI (SNB-75 CNS): 4.43 µM
- GI50 (UACC-257 melanoma): 2120 nM
- TGI (UACC-257 melanoma): 14.7 µM
- GI50 (UACC-62 melanoma): 498 nM
- TGI (UACC-62 melanoma): 8.81 µM
- GI50 (OVCAR-3 ovarian): 1970 nM
- TGI (OVCAR-3 ovarian): 8.44 µM
- GI50 (MDA-MB-231 breast): 1740 nM
- TGI (MDA-MB-231 breast): 31.7 µM
- GI50 (786-0 renal): 720 nM
- TGI (786-0 renal): 8.39 µM
- GI50 (RPMI-8226 leukemia): 441 nM
- TGI (RPMI-8226 leukemia): 2470 nM
- GI50 (HS 578T breast): 400 nM
- TGI (HS 578T breast): 6.55 µM
- GI50 (SK-MEL-5 melanoma): 904 nM
- TGI (SK-MEL-5 melanoma): 2860 nM
- GI50 (SW-620 colon): 994 nM
- TGI (SW-620 colon): > 35.6 µM
- GI50 (SK-OV-3 ovarian): 314 nM
- TGI (SK-OV-3 ovarian): 16.3 µM
- GI50 (EKVX NSCLC): 1750 nM
- TGI (EKVX NSCLC): 15 µM
- GI50 (KM12 colon): 35.1 nM
- TGI (KM12 colon): 18.2 µM
- GI50 (MALME-3M melanoma): 348 nM
- TGI (MALME-3M melanoma): 3.76 µM
- GI50 (RXF 393 renal): 307 nM
- TGI (RXF 393 renal): 1550 nM
- GI50 (NCI-H522 lung): 916 nM
- TGI (NCI-H522 lung): 5.15 µM
- GI50 (DU-145 prostate): 686 nM
- TGI (DU-145 prostate): > 34.9 µM
- GI50 (SN12C renal): 379 nM
- TGI (SN12C renal): 28.9 µM
- GI50 (HCC-2998 colon): 2500 nM
- TGI (HCC-2998 colon): 11 µM
- GI50 (CCRF-CEM leukemia): 366 nM
- TGI (CCRF-CEM leukemia): 2880 nM
- GI50 (PC-3 prostate): 791 nM
- TGI (PC-3 prostate): 13.7 µM
- GI50 (SK-MEL-28 melanoma): 1060 nM
- TGI (SK-MEL-28 melanoma): 10.5 µM
- GI50 (HCT-116 colon): 377 nM
- TGI (HCT-116 colon): 6.16 µM
- GI50 (OVCAR-4 ovarian): 619 nM
- TGI (OVCAR-4 ovarian): > 56.7 µM
- GI50 (UO-31 renal): 320 nM
- TGI (UO-31 renal): 9.34 µM
- GI50 (IGROV1 ovarian): 363 nM
- TGI (IGROV1 ovarian): 21.3 µM
- GI50 (SF-268 CNS): 1360 nM
- TGI (SF-268 CNS): > 37.2 µM
- GI50 (SF-539 CNS): 216 nM
- TGI (SF-539 CNS): 1870 nM
- GI50 (MCF7 breast): 933 nM
- TGI (MCF7 breast): 4.86 µM
- GI50 (OVCAR-8 ovarian): 864 nM
- TGI (OVCAR-8 ovarian): > 100 µM
- GI50 (M14 melanoma): 244 nM
- TGI (M14 melanoma): 4.27 µM
- GI50 (MOLT-4 leukemia): 397 nM
- GI50 (HL-60(TB) leukemia): 1100 nM
- TGI (HL-60(TB) leukemia): 3.51 µM
- GI50 (SK-MEL-2 melanoma): 390 nM
- TGI (SK-MEL-2 melanoma): 2470 nM
- GI50 (TK-10 renal): 2980 nM
- TGI (TK-10 renal): 17.7 µM
- GI50 (CAKI-1 renal): 170 nM
- TGI (CAKI-1 renal): 13.9 µM
- GI50 (NCI/ADR-RES ovarian): 2950 nM
- TGI (NCI/ADR-RES ovarian): > 44.5 µM
- GI50 (COLO 205 colon): 436 nM
- TGI (COLO 205 colon): 6.42 µM
- GI50 (MDA-MB-435): 600 nM
- TGI (MDA-MB-435): 18.1 µM
- GI50 (A549 NSCLC): 764 nM
- TGI (A549 NSCLC): 39.3 µM
- GI50 (SNB-19 CNS): 3.74 µM
- TGI (SNB-19 CNS): > 38.3 µM
- GI50 (HOP-62 NSCLC): 1870 nM
- TGI (HOP-62 NSCLC): 35.9 µM
- GI50 (ACHN renal): 348 nM
- TGI (ACHN renal): 13.2 µM
- GI50 (A498 renal): 390 nM
- TGI (A498 renal): 5.17 µM
- GI50 (U251 CNS): 1450 nM
- TGI (U251 CNS): > 40.3 µM
- GI50 (HCT-15 colon): 490 nM
- TGI (HCT-15 colon): > 28.5 µM
- GI50 (NCI-H226 lung): 517 nM
- TGI (NCI-H226 lung): 19.7 µM
- GI50 (NCI-H23 lung): 764 nM
- TGI (NCI-H23 lung): 6.54 µM
- GI50 (SF-295 CNS): 552 nM
- TGI (SF-295 CNS): 2220 nM
- GI50 (BT-549 breast): 835 nM
- TGI (BT-549 breast): 4.37 µM
- GI50 (HT29 colon): 631 nM
- TGI (HT29 colon): 3.57 µM
- GI50 (T-47D breast): 513 nM
- TGI (T-47D breast): > 29 µM
- GI50 (HOP-92 NSCLC): 1560 nM
- TGI (HOP-92 NSCLC): 14.9 µM
- GI50 (NCI-H460 lung): 296 nM
- TGI (NCI-H460 lung): 23.8 µM
